Measurements taken from US20250313563A1, “GLYCOGEN SYNTHASE KINASE 3 INHIBITORS AND USES THEREOF” (The Broad Institute, Inc., priority 2022, published 2025).
Like-named read-outs stand apart in the source and are kept apart here.

Legend:
[1] = target: GSK3α (GST-full length GSK3α) (Homo sapiens (Human), UniProt P49840); assay: GSK3α TR-FRET kinase assay; format: biochemical
Outline: (§1)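 Compound preincubated 30 min, then 1 nM GST-full-length GSK3α or GSK3b run 100 min at ambient temperature with 200 nM biotinylated, S645-prephosphorylated glycogen synthase 631-650 peptide in Tris pH 7.5, MgCl2, DTT, BSA, 1% DMSO. ATP 4 μM (α) or 2 μM (β), or 1 mM. EDTA-quenched; Tb-anti-pSer641/streptavidin-d2 TR-FRET 665/615 ratio gave IC50.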

[2] = target: GSK3b (GST-full length GSK3b) (Homo sapiens (Human), UniProt P49841); assay: GSK3b TR-FRET kinase assay; format: biochemical
Chain of GSK3b (GST-full length GSK3b) (P49841 whole entry): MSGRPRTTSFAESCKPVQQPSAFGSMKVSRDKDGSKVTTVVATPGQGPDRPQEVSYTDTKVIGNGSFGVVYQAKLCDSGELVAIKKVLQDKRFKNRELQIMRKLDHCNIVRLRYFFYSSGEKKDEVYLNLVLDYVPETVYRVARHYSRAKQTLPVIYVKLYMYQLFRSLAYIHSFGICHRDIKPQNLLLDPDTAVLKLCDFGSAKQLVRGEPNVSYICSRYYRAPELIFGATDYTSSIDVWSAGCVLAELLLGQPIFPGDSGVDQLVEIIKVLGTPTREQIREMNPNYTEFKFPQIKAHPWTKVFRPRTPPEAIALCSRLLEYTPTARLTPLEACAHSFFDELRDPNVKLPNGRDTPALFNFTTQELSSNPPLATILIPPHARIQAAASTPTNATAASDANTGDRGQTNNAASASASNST
Outline: as §1

[3] = 1 nM GSK3α, 4 μM ATP, 30 minute preincubation, Table 16, read-out: GSK3-A TR-FRET BIOCHEMICAL (TR-FRET)
[4] = 1 nM GSK3b, 2 μM ATP, 30 minute preincubation, Table 16, read-out: GSK3-B TR-FRET BIOCHEMICAL (TR-FRET)
[5] = 1 nM GSK3α, 4 μM ATP, 30 minute preincubation, read-out: GSK3-A TR-FRET BIOCHEMICAL (TR-FRET), IC50
[6] = read-out: GSK3-A (TR-FRET 1 mM ATP), GMean, IC50, 1 mM ATP, geometric mean
[7] = 1 nM GSK3b, 2 μM ATP, 30 minute preincubation, read-out: GSK3-B TR-FRET BIOCHEMICAL (TR-FRET), IC50
[8] = read-out: GSK3-B (TR-FRET 1 mM ATP), GMean, IC50, 1 mM ATP, geometric mean
[9] = 1 nM GSK3α, 4 μM ATP, 30 minute preincubation, Table 16, read-out: GSK3-A TR-FRET BIOCHEMICAL (TR-FRET), IC50
[10] = 1 nM GSK3b, 2 μM ATP, 30 minute preincubation, Table 16, read-out: GSK3-B TR-FRET BIOCHEMICAL (TR-FRET), IC50

Chain of GSK3α (GST-full length GSK3α) (P49840 whole entry): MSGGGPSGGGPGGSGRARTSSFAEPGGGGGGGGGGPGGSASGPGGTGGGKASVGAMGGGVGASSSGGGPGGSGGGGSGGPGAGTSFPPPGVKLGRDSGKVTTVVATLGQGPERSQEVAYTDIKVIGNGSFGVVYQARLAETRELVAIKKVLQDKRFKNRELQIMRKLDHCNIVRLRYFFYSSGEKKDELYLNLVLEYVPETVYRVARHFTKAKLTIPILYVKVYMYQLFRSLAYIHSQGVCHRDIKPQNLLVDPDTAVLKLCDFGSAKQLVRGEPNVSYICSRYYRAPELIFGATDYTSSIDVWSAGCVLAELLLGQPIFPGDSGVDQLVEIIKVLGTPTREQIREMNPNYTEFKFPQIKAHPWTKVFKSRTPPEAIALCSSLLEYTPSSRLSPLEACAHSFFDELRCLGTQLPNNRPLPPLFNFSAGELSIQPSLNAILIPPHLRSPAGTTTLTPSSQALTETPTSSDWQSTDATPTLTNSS

IC50 [1, 3]	IC50 [2, 4]	IC50 [1, 9]	IC50 [2, 10]	Structure (SMILES)	further results
100 to 1000 nM	100 to 1000 nM			O=C1CC2(CSC2)CC2=C1C1(CCCC1)c1c[nH]nc1N2 [Compound 913441]	
100 to 1000 nM	100 to 1000 nM			CC1(C)CC(=O)C2=C(C1)Nc1n[nH]cc1[C@@]21CO[C@@H](C2CC2)C1 [Compound 913442]	
≤ 100 nM	100 to 1000 nM			CC[C@@]1(c2cccc(C(F)(F)F)c2)C2=C(Nc3n[nH]cc31)C(C)(C)NC2=O [Compound 913451]	
				CC[C@@]1(c2cccc(C(F)(F)F)c2)C2=C(CC3(CCC3)NC2=O)Nc2n[nH]cc21 [Compound 914308]	IC50 [1, 5]: ≤ 100 nM; IC50 [1, 6]: 100 to 1000 nM; IC50 [2, 7]: ≤ 100 nM; IC50 [2, 8]: 1000 to 5000 nM
				CCC1(c2cccc(-c3ccnc(C)c3)c2)C2=C(CC(C)(C)NC2=O)Nc2n[nH]cc21 (stereo not shown) [Compound 914930]	IC50 [1, 5]: ≤ 100 nM; IC50 [2, 7]: 1000 to 5000 nM
				CCC1(c2cccc(-c3ccnn3C)c2)C2=C(CC(C)(C)NC2=O)Nc2n[nH]cc21 (stereo not shown) [Compound 914971]	IC50 [1, 5]: ≤ 100 nM; IC50 [2, 7]: 100 to 1000 nM
		≤ 100 nM	≤ 100 nM	CC[C@@]1(c2cccc(N(C)c3cnccn3)c2)C2=C(CC(C)(C)CC2=O)Nc2n[nH]cc21 [Compound 915316]	
		100 to 1000 nM	1000 to 5000 nM	CC[C@]1(c2cccc(N(C)c3cnccn3)c2)C2=C(CC(C)(C)CC2=O)Nc2n[nH]cc21 [Compound 915340]	
		≤ 100 nM	≤ 100 nM	CC[C@@]1(c2cccc(N(C)c3cncnc3)c2)C2=C(CC(C)(C)CC2=O)Nc2n[nH]cc21 [Compound 915400]	
		100 to 1000 nM	1000 to 5000 nM	CC[C@]1(c2cccc(N(C)c3cncnc3)c2)C2=C(CC(C)(C)NC2=O)Nc2n[nH]cc21 [Compound 915401]	
		≤ 100 nM	≤ 100 nM	CCC1(c2cccc(N3CCCc4ncccc43)c2)C2=C(CC(C)(C)CC2=O)Nc2n[nH]cc21 (stereo not shown) [Compound 917076]	
		100 to 1000 nM	1000 to 5000 nM	CCC1(c2cccc(N3CCCc4ncccc43)c2)C2=C(CC(C)(C)CC2=O)Nc2n[nH]cc21 (stereo not shown) [Compound 917079]	
≤ 100 nM	≤ 100 nM			CC1(C)CC(=O)C2=C(C1)Nc1n[nH]cc1C21CC(c2ccccc2)C1 (stereo not shown) [Compound 917081]	
≤ 100 nM	≤ 100 nM			CC1(C)CC(=O)C2=C(C1)Nc1n[nH]cc1C21CC(c2ccccc2)C1 (stereo not shown) [Compound 917082]	
				CCC1(c2cccc(N(c3cccnc3)C(C)C)c2)C2=C(CC(C)(C)CC2=O)Nc2n[nH]cc21 (stereo not shown) [Compound 917086]	IC50 [1, 6]: 100 to 1000 nM; IC50 [2, 8]: 1000 to 5000 nM
		100 to 1000 nM	1000 to 5000 nM	CC[C@]1(c2cccc(N(c3cccnc3)C(C)C)c2)C2=C(CC(C)(C)CC2=O)Nc2n[nH]cc21 [Compound 917087]	
		≤ 100 nM	≤ 100 nM	CCN(c1cccnc1)c1cccc(C2(CC)C3=C(CC(C)(C)CC3=O)Nc3n[nH]cc32)c1 (stereo not shown) [Compound 917088]	IC50 [1, 6]: 100 to 1000 nM; IC50 [2, 8]: 1000 to 5000 nM
		100 to 1000 nM	1000 to 5000 nM	CCN(c1cccnc1)c1cccc(C2(CC)C3=C(CC(C)(C)CC3=O)Nc3n[nH]cc32)c1 (stereo not shown) [Compound 917089]	
				CC1(C)CC(=O)C2=C(C1)Nc1n[nH]cc1[C@]21COC2(CCC2)C1 [Compound 917128]	IC50 [1, 5]: 100 to 1000 nM; IC50 [2, 7]: 100 to 1000 nM
				CC1(C)CC(=O)C2=C(C1)Nc1n[nH]cc1[C@@]21COC2(CCC2)C1 [Compound 917129]	IC50 [1, 5]: 100 to 1000 nM; IC50 [2, 7]: 100 to 1000 nM
		≤ 100 nM	≤ 100 nM	CCCS(=O)(=O)c1cccc(C2(CC)C3=C(CC(C)(C)CC3=O)Nc3n[nH]cc32)c1 (stereo not shown) [Compound 917131]	
≤ 100 nM	≤ 100 nM			CC1(C)CC2=C(C(=O)C1F)[C@]1(CC[C@H](C(F)(F)F)CC1)c1c[nH]nc1N2 (stereo partly shown) [Compound 917133]	

IC50 [1, 3]	IC50 [2, 4]	IC50 [1, 9]	IC50 [2, 10]	Structure (SMILES)	further results
≤ 100 nM	100 to 1000 nM			CC1(C)CC2=C(C(=O)C1F)[C@]1(CC[C@@H](C(F)(F)F)CC1)c1c[nH]nc1N2 (stereo partly shown) [Compound 917134]	
≤ 100 nM	100 to 1000 nM			CC1(C)CC(=O)C2=C(Nc3n[nH]cc3[C@]23CC[C@@H](C(F)(F)F)CC3)C1F (stereo partly shown) [Compound 917135]	
≤ 100 nM	100 to 1000 nM			CC1(C)CC(=O)C2=C(Nc3n[nH]cc3[C@]23CC[C@H](C(F)(F)F)CC3)C1F (stereo partly shown) [Compound 917136]	
≤ 100 nM	≤ 100 nM			CC1(C)CC(=O)C2=C(C1)Nc1n[nH]cc1C21CCCN(S(=O)(=O)C2CC2)CC1 (stereo not shown) [Compound 917137]	
≤ 100 nM	≤ 100 nM			Cn1ccc(S(=O)(=O)N2CCCC3(CC2)C2=C(CC(C)(C)CC2=O)Nc2n[nH]cc23)n1 (stereo not shown) [Compound 917138]	
≤ 100 nM	≤ 100 nM			CC1(C)CC(=O)C2=C(C1)Nc1n[nH]cc1C21CN(S(=O)(=O)C2CCCC2)C1 [Compound 917139]	IC50 ([1]; GSK3-A (TR-FRET 1 mM ATP), GMean, IC50, 1 mM ATP, geometric mean): 100 to 1000 nM; IC50 ([2]; GSK3-B (TR-FRET 1 mM ATP), GMean, IC50, 1 mM ATP, geometric mean): 100 to 1000 nM
≤ 100 nM	100 to 1000 nM			COc1cccc(S(=O)(=O)N2CCCC3(CC2)C2=C(CC(C)(C)CC2=O)Nc2n[nH]cc23)c1 (stereo not shown) [Compound 917140]	
≤ 100 nM	100 to 1000 nM			COc1ccc(S(=O)(=O)N2CCCC3(CC2)C2=C(CC(C)(C)CC2=O)Nc2n[nH]cc23)cc1 (stereo not shown) [Compound 917141]	
≤ 100 nM	100 to 1000 nM			COc1ccccc1S(=O)(=O)N1CCCC2(CC1)C1=C(CC(C)(C)CC1=O)Nc1n[nH]cc12 (stereo not shown) [Compound 917142]	
≤ 100 nM	≤ 100 nM			COc1ccc(S(=O)(=O)N2CCC3(CC2)C2=C(CC(C)(C)CC2=O)Nc2n[nH]cc23)cc1 [Compound 917143]	
≤ 100 nM	≤ 100 nM			CC1(C)CC(=O)C2=C(C1)Nc1n[nH]cc1C21CN(S(=O)(=O)c2ccc(F)cc2)C1 [Compound 917144]	
		1000 to 5000 nM	1000 to 5000 nM	CC1(C)CC(=O)C2=C(C1)Nc1n[nH]cc1C21CCCN(c2ccncn2)CC1 (stereo not shown) [Compound 917145]	
		≤ 100 nM	≤ 100 nM	CCC1(c2cccc(N(C)c3ccnc(F)c3)c2)C2=C(CC(C)(C)CC2=O)Nc2n[nH]cc21 (stereo not shown) [Compound 917146]	
		≤ 100 nM	100 to 1000 nM	CCc1cc(N(C)c2cccc(C3(CC)C4=C(CC(C)(C)CC4=O)Nc4n[nH]cc43)c2)ccn1 (stereo not shown) [Compound 917147]	
		100 to 1000 nM	1000 to 5000 nM	CCC1(c2cccc(N(C)c3ccnc(C)c3)c2)C2=C(CC(C)(C)CC2=O)Nc2n[nH]cc21 (stereo not shown) [Compound 917149]	
		≤ 100 nM	≤ 100 nM	CCC1(c2cccc(S(=O)(=O)CC3CC3)c2)C2=C(CC(C)(C)CC2=O)Nc2n[nH]cc21 (stereo not shown) [Compound 917150]	IC50 [1, 6]: ≤ 100 nM; IC50 [2, 8]: 100 to 1000 nM
		1000 to 5000 nM	> 5000 nM	CC[C@@]1(c2cccc(S(=O)(=O)CC3CC3)c2)C2=C(CC(C)(C)CC2=O)Nc2n[nH]cc21 [Compound 917151]	
		≤ 100 nM	100 to 1000 nM	CCC1(c2cccc(N(C)c3ccc(F)nc3)c2)C2=C(CC(C)(C)CC2=O)Nc2n[nH]cc21 (stereo not shown) [Compound 917152]	
> 5000 nM	> 5000 nM			CC[C@@]1(c2cccc(C(F)(F)F)c2)C2=C(CNC2=O)Nc2n[nH]cc21 [Compound 917157]	
100 to 1000 nM	1000 to 5000 nM			CCC1(c2cccc(C(F)(F)F)c2)C2=C(CNC2=O)Nc2n[nH]cc21 (stereo not shown) [Compound 917158]	
≤ 100 nM	100 to 1000 nM			CCC1(c2cccc(C(F)(F)F)c2)C2=C(CN(Cc3ccccc3)C2=O)Nc2n[nH]cc21 (stereo not shown) [Compound 917159]	
